{"source": "patent US8247211B2", "about": "“Glycopeptide antibiotics” (American Cyanamid Company, priority 2001, dated 2012)", "assay_in_all_cases": "In vitro antibacterial evaluation: minimum inhibitory concentration (MIC), broth dilution method", "format_in_all_cases": "cell-based", "settings_in_all_cases": "18 hours at 35° C.", "key": {"Streptococcus sp.": {"tested_on": "Streptococcus sp.", "outline": "(§1)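 Broth dilution per NCCLS M7-A2 in Muller-Hinton II […], inoculum 5×10^5 CFU/mL, antibiotic tested over 64-0.06 μg/mL. MIC is taken as the lowest concentration that inhibits growth. Panel includes recent clinical isolates resistant to methicillin, penicillin and/or vancomycin.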"}, "Escherichia coli": {"tested_on": "Escherichia coli", "outline": "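Susceptibility determined by NCCLS-recommended broth dilution (M7-A2), Muller-Hinton II […]. Concentration span 64-0.06 μg/mL, inoculum 5×10^5 CFU/mL. Isolates include strains resistant to methicillin, penicillin and/or vancomycin.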"}, "Staphylococcus sp.": {"tested_on": "Staphylococcus sp.", "outline": "as §1"}, "Enterococcus sp.": {"tested_on": "Enterococcus sp.", "outline": "as §1"}, "[1]": {"settings": "broth dilution, inoculum 5×10^5 CFU/mL"}}}
{"smiles": "CC(c1ccccc1)C1NC(=O)CNC(=O)C(CO)NC(=O)C(C(O)C2CNC(=N)N2C2OC(CO)C(O)C(O)C2O)NC(=O)C(C(O)C2CNC(=N)N2)NC(=O)C(Cc2ccc(OC3OC(CO)C(OC4OC(COCC=C(c5ccccc5)c5ccccc5)C(O)C(O)C4O)C(O)C3O)cc2)NC1=O", "note": "(stereo not drawn) [Example 241, Cyclo[glycyl-β-methylphenylalanyl-O-[4-O-[6-O-[3,3-diphenylprop-2-en-1-yl)hexopyranosyl]-hexopyranosyl]tyrosyl-3-(2-iminoimidazolidin-4-yl)seryl-3-(3-hexopyranosyl-2-iminoimidazolidin-4-yl)serylseryl]]", "values": [{"measurement": "MIC Streptococcus agalactiae (GC 4564)", "setting": "Streptococcus sp.; Streptococcus agalactiae (GC 4564)", "result": "<0.06", "unit": "µg/mL"}, {"measurement": "MIC Streptococcus pneumoniae (ATCC 6301)", "setting": "Streptococcus sp.; Streptococcus pneumoniae (ATCC 6301)", "result": "<0.06", "unit": "µg/mL"}, {"measurement": "MIC Streptococcus pneumoniae (GC 1894)", "setting": "Streptococcus sp.; Streptococcus pneumoniae (GC 1894)", "result": "<0.06", "unit": "µg/mL"}, {"measurement": "MIC Streptococcus pneumoniae (GC 4565)", "setting": "Streptococcus sp.; Streptococcus pneumoniae (GC 4565)", "result": "<0.06", "unit": "µg/mL"}, {"measurement": "MIC Streptococcus pyogenes (GC 4563)", "setting": "Streptococcus sp.; Streptococcus pyogenes (GC 4563)", "result": "<0.06", "unit": "µg/mL"}, {"measurement": "MIC Streptococcus agalactiae (GC 4564)", "setting": "Streptococcus sp.; [1]", "result": "<0.06", "unit": "µg/mL"}, {"measurement": "MIC Streptococcus pneumoniae (ATCC 6301)", "setting": "Streptococcus sp.; [1]", "result": "<0.06", "unit": "µg/mL"}, {"measurement": "MIC Streptococcus pneumoniae (GC 1894)", "setting": "Streptococcus sp.; [1]", "result": "<0.06", "unit": "µg/mL"}, {"measurement": "MIC Streptococcus pneumoniae (GC 4565)", "setting": "Streptococcus sp.; [1]", "result": "<0.06", "unit": "µg/mL"}, {"measurement": "MIC Streptococcus pyogenes (GC 4563)", "setting": "Streptococcus sp.; [1]", "result": "<0.06", "unit": "µg/mL"}, {"measurement": "MIC Escherichia coli (ATCC 25922)", "setting": "Escherichia coli; Escherichia coli (ATCC 25922)", "result": ">64", "unit": "µg/mL"}, {"measurement": "MIC Escherichia coli (GC 4559)", "setting": "Escherichia coli; Escherichia coli (GC 4559)", "result": ">64", "unit": "µg/mL"}, {"measurement": "MIC Escherichia coli (GC 4560)", "setting": "Escherichia coli; Escherichia coli (GC 4560)", "result": 2, "unit": "µg/mL"}, {"measurement": "MIC Coagulase Negative Staphylococcus (GC 4547)", "setting": "Staphylococcus sp.; Coagulase Negative Staphylococcus (GC 4547)", "result": 2, "unit": "µg/mL"}, {"measurement": "MIC Coagulase Negative Staphylococcus (GC 4548)", "setting": "Staphylococcus sp.; Coagulase Negative Staphylococcus (GC 4548)", "result": 1, "unit": "µg/mL"}, {"measurement": "MIC Coagulase Negative Staphylococcus (GC 4549)", "setting": "Staphylococcus sp.; Coagulase Negative Staphylococcus (GC 4549)", "result": 2, "unit": "µg/mL"}, {"measurement": "MIC Coagulase Negative Staphylococcus (GC 4551)", "setting": "Staphylococcus sp.; Coagulase Negative Staphylococcus (GC 4551)", "result": 4, "unit": "µg/mL"}, {"measurement": "MIC Coagulase Negative Staphylococcus (GC 6257)", "setting": "Staphylococcus sp.; Coagulase Negative Staphylococcus (GC 6257)", "result": 2, "unit": "µg/mL"}, {"measurement": "MIC Staphylococcus aureus (ATCC 29213)", "setting": "Staphylococcus sp.; Staphylococcus aureus (ATCC 29213)", "result": 2, "unit": "µg/mL"}, {"measurement": "MIC Staphylococcus aureus (GC 1131)", "setting": "Staphylococcus sp.; Staphylococcus aureus (GC 1131)", "result": 2, "unit": "µg/mL"}, {"measurement": "MIC Staphylococcus aureus (GC 3051)", "setting": "Staphylococcus sp.; Staphylococcus aureus (GC 3051)", "result": 2, "unit": "µg/mL"}, {"measurement": "MIC Staphylococcus aureus (GC 3053)", "setting": "Staphylococcus sp.; Staphylococcus aureus (GC 3053)", "result": 2, "unit": "µg/mL"}, {"measurement": "MIC Staphylococcus aureus (GC 4541)", "setting": "Staphylococcus sp.; Staphylococcus aureus (GC 4541)", "result": 2, "unit": "µg/mL"}, {"measurement": "MIC Staphylococcus aureus (GC 4542)", "setting": "Staphylococcus sp.; Staphylococcus aureus (GC 4542)", "result": 2, "unit": "µg/mL"}, {"measurement": "MIC Staphylococcus aureus (GC 4544)", "setting": "Staphylococcus sp.; Staphylococcus aureus (GC 4544)", "result": 2, "unit": "µg/mL"}, {"measurement": "MIC Staphylococcus aureus (GC 4545)", "setting": "Staphylococcus sp.; Staphylococcus aureus (GC 4545)", "result": 2, "unit": "µg/mL"}, {"measurement": "MIC Staphylococcus aureus-SMITH (GC 4543)", "setting": "Staphylococcus sp.; Staphylococcus aureus-SMITH (GC 4543)", "result": 2, "unit": "µg/mL"}, {"measurement": "MIC Staphylococcus haemolyticus (GC 4546)", "setting": "Staphylococcus sp.; Staphylococcus haemolyticus (GC 4546)", "result": 2, "unit": "µg/mL"}, {"measurement": "MIC Enterococcus avium (GC 4558)", "setting": "Enterococcus sp.; Enterococcus avium (GC 4558)", "result": 4, "unit": "µg/mL"}, {"measurement": "MIC Enterococcus faecalis (ATCC 29212)", "setting": "Enterococcus sp.; Enterococcus faecalis (ATCC 29212)", "result": 4, "unit": "µg/mL"}, {"measurement": "MIC Enterococcus faecalis (GC 2242)", "setting": "Enterococcus sp.; Enterococcus faecalis (GC 2242)", "result": 4, "unit": "µg/mL"}, {"measurement": "MIC Enterococcus faecalis (GC 2691)", "setting": "Enterococcus sp.; Enterococcus faecalis (GC 2691)", "result": 4, "unit": "µg/mL"}, {"measurement": "MIC Enterococcus faecalis (GC 3059)", "setting": "Enterococcus sp.; Enterococcus faecalis (GC 3059)", "result": 2, "unit": "µg/mL"}, {"measurement": "MIC Enterococcus faecalis (GC 4552)", "setting": "Enterococcus sp.; Enterococcus faecalis (GC 4552)", "result": 4, "unit": "µg/mL"}, {"measurement": "MIC Enterococcus faecalis (GC 4553)", "setting": "Enterococcus sp.; Enterococcus faecalis (GC 4553)", "result": 4, "unit": "µg/mL"}, {"measurement": "MIC Enterococcus faecalis (GC 4554)", "setting": "Enterococcus sp.; Enterococcus faecalis (GC 4554)", "result": 4, "unit": "µg/mL"}, {"measurement": "MIC Enterococcus faecalis (GC 6189)", "setting": "Enterococcus sp.; Enterococcus faecalis (GC 6189)", "result": 2, "unit": "µg/mL"}, {"measurement": "MIC Enterococcus faecium (GC 2243)", "setting": "Enterococcus sp.; Enterococcus faecium (GC 2243)", "result": 4, "unit": "µg/mL"}, {"measurement": "MIC Enterococcus faecium (GC 4556)", "setting": "Enterococcus sp.; Enterococcus faecium (GC 4556)", "result": 4, "unit": "µg/mL"}, {"measurement": "MIC Enterococcus faecium (GC 4557)", "setting": "Enterococcus sp.; Enterococcus faecium (GC 4557)", "result": 2, "unit": "µg/mL"}, {"measurement": "MIC Enterococcus faecalis (GC 2242)", "setting": "Enterococcus sp.; [1]", "result": 4, "unit": "µg/mL"}, {"measurement": "MIC Enterococcus faecalis (GC 2691)", "setting": "Enterococcus sp.; [1]", "result": 4, "unit": "µg/mL"}, {"measurement": "MIC Enterococcus faecalis (GC 3059)", "setting": "Enterococcus sp.; [1]", "result": 2, "unit": "µg/mL"}]}
